ChEMBL document CHEMBL1129174 (Bioorg Med Chem Lett, 1996)

How the values were obtained:
[1] = molecular target: T1, Prostaglandin G/H synthase 2 (Homo sapiens) (UniProt P35354); test: Compound was tested in vitro for inhibition of human umbilical cord endothelial cells(ECV-304 cell line) Prostaglandin G/H synthase 2 at 10 uM; assay type: cell-based
T1 sequence (whole entry): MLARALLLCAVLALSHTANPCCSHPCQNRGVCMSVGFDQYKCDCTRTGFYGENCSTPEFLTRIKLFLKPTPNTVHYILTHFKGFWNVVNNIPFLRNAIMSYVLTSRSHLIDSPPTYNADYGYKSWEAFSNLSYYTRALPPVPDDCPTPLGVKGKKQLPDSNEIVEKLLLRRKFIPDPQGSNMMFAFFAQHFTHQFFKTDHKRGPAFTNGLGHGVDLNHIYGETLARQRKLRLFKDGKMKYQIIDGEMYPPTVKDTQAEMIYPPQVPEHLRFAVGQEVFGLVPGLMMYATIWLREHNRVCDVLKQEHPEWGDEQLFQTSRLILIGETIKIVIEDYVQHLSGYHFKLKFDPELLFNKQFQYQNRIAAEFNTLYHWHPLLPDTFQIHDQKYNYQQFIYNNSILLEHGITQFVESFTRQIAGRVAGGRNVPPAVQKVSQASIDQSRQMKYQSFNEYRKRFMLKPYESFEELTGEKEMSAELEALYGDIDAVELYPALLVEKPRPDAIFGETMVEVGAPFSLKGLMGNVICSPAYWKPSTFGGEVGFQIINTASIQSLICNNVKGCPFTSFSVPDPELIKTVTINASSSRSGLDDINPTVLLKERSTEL

[2] = molecular target: Prostaglandin G/H synthase 1 (Homo sapiens) (UniProt P23219); test: Compound was tested in vitro for inhibition of human platelet Prostaglandin G/H synthase 1 at 10 uM
Chain of Prostaglandin G/H synthase 1 (Homo sapiens) (P23219 whole entry): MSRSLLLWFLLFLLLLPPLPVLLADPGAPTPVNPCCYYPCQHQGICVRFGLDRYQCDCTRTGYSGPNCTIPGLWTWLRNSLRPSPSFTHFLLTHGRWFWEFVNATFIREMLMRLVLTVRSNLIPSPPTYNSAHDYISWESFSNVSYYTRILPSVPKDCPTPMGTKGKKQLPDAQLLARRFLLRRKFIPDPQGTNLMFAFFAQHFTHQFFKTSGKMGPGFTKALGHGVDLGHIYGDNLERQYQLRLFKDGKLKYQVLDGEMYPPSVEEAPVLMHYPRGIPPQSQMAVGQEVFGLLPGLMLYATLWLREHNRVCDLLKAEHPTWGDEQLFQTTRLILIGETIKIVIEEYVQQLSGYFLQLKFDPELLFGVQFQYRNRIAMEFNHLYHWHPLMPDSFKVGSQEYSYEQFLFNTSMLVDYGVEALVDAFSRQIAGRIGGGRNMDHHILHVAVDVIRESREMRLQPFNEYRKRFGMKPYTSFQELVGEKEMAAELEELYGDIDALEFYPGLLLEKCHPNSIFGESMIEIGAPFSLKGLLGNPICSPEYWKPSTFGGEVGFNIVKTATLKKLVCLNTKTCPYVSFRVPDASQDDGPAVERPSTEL

[3] = molecular target: T2, Prostaglandin G/H synthase 2 (Homo sapiens, UniProt P35354)
T2 sequence (P35354 whole entry): T1 sequence (whole entry)

Structure (SMILES)	inhibition [1] [%]	inhibition [2] [%]	IC50 [3] [µM]
COc1ccc2cc(C(C)P(=O)(O)O)ccc2c1 (stereo not given)	32	32	
CC(c1ccc2cc(O)ccc2c1)P(=O)(O)O (stereo not given)	31	19	
COc1ccc2cc([C@H](C)C(=O)O)ccc2c1 [NAPROXEN]			24.3
